Oligonucleotides are given in HELM: sugar(base)linkage, 5' to 3'; d 2'-deoxyribose, r ribose, m 2'-O-methylribose, p phosphate. ss, as = sense and antisense strand
Note: test concentration or dose not given here.

The series concerns the target SOST. Description: reporter assay of Huesken 2005. The conditions noted are these: siRNA.
“RNA1{r(A)p.r(A)p.r(A)p.r(U)p.r(C)p.r(A)p.r(U)p.r(C)p.r(C)p.r(C)p.r(C)p.r(G)p.r(A)p.r(G)p.r(C)p.r(U)p.r(C)p.r(G)p.r(G)p.d(T)p.d(T)}|RNA2{r(C)p.r(C)p.r(G)p.r(A)p.r(G)p.r(C)p.r(U)p.r(C)p.r(G)p.r(G)p.r(G)p.r(G)p.r(A)p.r(U)p.r(G)p.r(A)p.r(U)p.r(U)p.r(U)p.d(C)p.d(C)}$$$RNA1{StrandType:ss}|RNA2{StrandType:as}$” displayed a normalised inhibition (eCFP-eYFP dual reporter) of 49.8%.

“RNA1{r(U)p.r(C)p.r(G)p.r(G)p.r(A)p.r(G)p.r(C)p.r(U)p.r(C)p.r(A)p.r(A)p.r(G)p.r(G)p.r(A)p.r(C)p.r(U)p.r(U)p.r(C)p.r(G)p.d(T)p.d(T)}|RNA2{r(C)p.r(G)p.r(A)p.r(A)p.r(G)p.r(U)p.r(C)p.r(C)p.r(U)p.r(U)p.r(G)p.r(A)p.r(G)p.r(C)p.r(U)p.r(C)p.r(C)p.r(G)p.r(A)p.d(C)p.d(T)}$$$RNA1{StrandType:ss}|RNA2{StrandType:as}$” returned a normalised inhibition (eCFP-eYFP dual reporter) of 61.8%.

The substance “RNA1{r(C)p.r(G)p.r(A)p.r(U)p.r(G)p.r(G)p.r(G)p.r(C)p.r(C)p.r(G)p.r(U)p.r(G)p.r(C)p.r(C)p.r(G)p.r(C)p.r(A)p.r(G)p.r(C)p.d(T)p.d(T)}|RNA2{r(G)p.r(C)p.r(U)p.r(G)p.r(C)p.r(G)p.r(G)p.r(C)p.r(A)p.r(C)p.r(G)p.r(G)p.r(C)p.r(C)p.r(C)p.r(A)p.r(U)p.r(C)p.r(G)p.d(G)p.d(T)}$$$RNA1{StrandType:ss}|RNA2{StrandType:as}$” registered a normalised inhibition (eCFP-eYFP dual reporter) of 51%.

For “RNA1{r(G)p.r(G)p.r(A)p.r(C)p.r(U)p.r(U)p.r(C)p.r(G)p.r(G)p.r(G)p.r(A)p.r(C)p.r(C)p.r(G)p.r(A)p.r(G)p.r(G)p.r(C)p.r(C)p.d(T)p.d(T)}|RNA2{r(G)p.r(G)p.r(C)p.r(C)p.r(U)p.r(C)p.r(G)p.r(G)p.r(U)p.r(C)p.r(C)p.r(C)p.r(G)p.r(A)p.r(A)p.r(G)p.r(U)p.r(C)p.r(C)p.d(T)p.d(T)}$$$RNA1{StrandType:ss}|RNA2{StrandType:as}$”, the normalised inhibition (eCFP-eYFP dual reporter) turned out to be 53.8%.

In turn, “RNA1{r(C)p.r(G)p.r(U)p.r(G)p.r(U)p.r(A)p.r(G)p.r(U)p.r(G)p.r(G)p.r(A)p.r(G)p.r(G)p.r(G)p.r(C)p.r(C)p.r(A)p.r(G)p.r(G)p.d(T)p.d(T)}|RNA2{r(C)p.r(C)p.r(U)p.r(G)p.r(G)p.r(C)p.r(C)p.r(C)p.r(U)p.r(C)p.r(C)p.r(A)p.r(C)p.r(U)p.r(A)p.r(C)p.r(A)p.r(C)p.r(G)p.d(G)p.d(A)}$$$RNA1{StrandType:ss}|RNA2{StrandType:as}$” had a normalised inhibition (eCFP-eYFP dual reporter) of 60.7%.

On to “RNA1{r(C)p.r(A)p.r(C)p.r(C)p.r(C)p.r(C)p.r(U)p.r(U)p.r(U)p.r(G)p.r(A)p.r(G)p.r(A)p.r(C)p.r(C)p.r(A)p.r(A)p.r(A)p.r(G)p.d(T)p.d(T)}|RNA2{r(C)p.r(U)p.r(U)p.r(U)p.r(G)p.r(G)p.r(U)p.r(C)p.r(U)p.r(C)p.r(A)p.r(A)p.r(A)p.r(G)p.r(G)p.r(G)p.r(G)p.r(U)p.r(G)p.d(G)p.d(T)}$$$RNA1{StrandType:ss}|RNA2{StrandType:as}$”, for which the normalised inhibition (eCFP-eYFP dual reporter) came to 72.2%.

As to “RNA1{r(A)p.r(A)p.r(C)p.r(A)p.r(A)p.r(G)p.r(A)p.r(C)p.r(C)p.r(A)p.r(U)p.r(G)p.r(A)p.r(A)p.r(C)p.r(C)p.r(G)p.r(G)p.r(G)p.d(T)p.d(T)}|RNA2{r(C)p.r(C)p.r(C)p.r(G)p.r(G)p.r(U)p.r(U)p.r(C)p.r(A)p.r(U)p.r(G)p.r(G)p.r(U)p.r(C)p.r(U)p.r(U)p.r(G)p.r(U)p.r(U)p.d(G)p.d(T)}$$$RNA1{StrandType:ss}|RNA2{StrandType:as}$”, the normalised inhibition (eCFP-eYFP dual reporter) turned out to be 69.7%.

As to “RNA1{r(C)p.r(U)p.r(C)p.r(A)p.r(A)p.r(G)p.r(G)p.r(A)p.r(C)p.r(U)p.r(U)p.r(C)p.r(G)p.r(G)p.r(G)p.r(A)p.r(C)p.r(C)p.r(G)p.d(T)p.d(T)}|RNA2{r(C)p.r(G)p.r(G)p.r(U)p.r(C)p.r(C)p.r(C)p.r(G)p.r(A)p.r(A)p.r(G)p.r(U)p.r(C)p.r(C)p.r(U)p.r(U)p.r(G)p.r(A)p.r(G)p.d(C)p.d(T)}$$$RNA1{StrandType:ss}|RNA2{StrandType:as}$”, the normalised inhibition (eCFP-eYFP dual reporter) was 62.6%.

As for “RNA1{r(G)p.r(C)p.r(C)p.r(A)p.r(G)p.r(G)p.r(G)p.r(G)p.r(U)p.r(G)p.r(G)p.r(C)p.r(A)p.r(G)p.r(G)p.r(C)p.r(G)p.r(U)p.r(U)p.d(T)p.d(T)}|RNA2{r(A)p.r(A)p.r(C)p.r(G)p.r(C)p.r(C)p.r(U)p.r(G)p.r(C)p.r(C)p.r(A)p.r(C)p.r(C)p.r(C)p.r(C)p.r(U)p.r(G)p.r(G)p.r(C)p.d(C)p.d(C)}$$$RNA1{StrandType:ss}|RNA2{StrandType:as}$”, the normalised inhibition (eCFP-eYFP dual reporter) turned out to be 77.7%.

“RNA1{r(C)p.r(A)p.r(A)p.r(G)p.r(U)p.r(G)p.r(G)p.r(U)p.r(G)p.r(G)p.r(C)p.r(G)p.r(A)p.r(C)p.r(C)p.r(U)p.r(A)p.r(G)p.r(U)p.d(T)p.d(T)}|RNA2{r(A)p.r(C)p.r(U)p.r(A)p.r(G)p.r(G)p.r(U)p.r(C)p.r(G)p.r(C)p.r(C)p.r(A)p.r(C)p.r(C)p.r(A)p.r(C)p.r(U)p.r(U)p.r(G)p.d(C)p.d(C)}$$$RNA1{StrandType:ss}|RNA2{StrandType:as}$” gave a normalised inhibition (eCFP-eYFP dual reporter) of 64.5%.

As for “RNA1{r(A)p.r(G)p.r(G)p.r(U)p.r(G)p.r(C)p.r(G)p.r(C)p.r(C)p.r(U)p.r(G)p.r(G)p.r(U)p.r(G)p.r(G)p.r(C)p.r(C)p.r(U)p.r(C)p.d(T)p.d(T)}|RNA2{r(G)p.r(A)p.r(G)p.r(G)p.r(C)p.r(C)p.r(A)p.r(C)p.r(C)p.r(A)p.r(G)p.r(G)p.r(C)p.r(G)p.r(C)p.r(A)p.r(C)p.r(C)p.r(U)p.d(T)p.d(G)}$$$RNA1{StrandType:ss}|RNA2{StrandType:as}$”, the normalised inhibition (eCFP-eYFP dual reporter) is 71.2%.

The substance “RNA1{r(G)p.r(G)p.r(A)p.r(G)p.r(C)p.r(U)p.r(C)p.r(A)p.r(A)p.r(G)p.r(G)p.r(A)p.r(C)p.r(U)p.r(U)p.r(C)p.r(G)p.r(G)p.r(G)p.d(T)p.d(T)}|RNA2{r(C)p.r(C)p.r(C)p.r(G)p.r(A)p.r(A)p.r(G)p.r(U)p.r(C)p.r(C)p.r(U)p.r(U)p.r(G)p.r(A)p.r(G)p.r(C)p.r(U)p.r(C)p.r(C)p.d(G)p.d(A)}$$$RNA1{StrandType:ss}|RNA2{StrandType:as}$” gave a normalised inhibition (eCFP-eYFP dual reporter) of 75%.

For the substance “RNA1{r(C)p.r(A)p.r(G)p.r(G)p.r(C)p.r(G)p.r(U)p.r(U)p.r(C)p.r(A)p.r(A)p.r(G)p.r(A)p.r(A)p.r(U)p.r(G)p.r(A)p.r(U)p.r(G)p.d(T)p.d(T)}|RNA2{r(C)p.r(A)p.r(U)p.r(C)p.r(A)p.r(U)p.r(U)p.r(C)p.r(U)p.r(U)p.r(G)p.r(A)p.r(A)p.r(C)p.r(G)p.r(C)p.r(C)p.r(U)p.r(G)p.d(C)p.d(C)}$$$RNA1{StrandType:ss}|RNA2{StrandType:as}$”, the normalised inhibition (eCFP-eYFP dual reporter) was determined as 82.4%.

In the case of “RNA1{r(C)p.r(U)p.r(C)p.r(G)p.r(G)p.r(A)p.r(G)p.r(A)p.r(G)p.r(U)p.r(A)p.r(C)p.r(C)p.r(C)p.r(C)p.r(G)p.r(A)p.r(G)p.r(C)p.d(T)p.d(T)}|RNA2{r(G)p.r(C)p.r(U)p.r(C)p.r(G)p.r(G)p.r(G)p.r(G)p.r(U)p.r(A)p.r(C)p.r(U)p.r(C)p.r(U)p.r(C)p.r(C)p.r(G)p.r(A)p.r(G)p.d(C)p.d(T)}$$$RNA1{StrandType:ss}|RNA2{StrandType:as}$”, the normalised inhibition (eCFP-eYFP dual reporter) is 44.4%.

As to “RNA1{r(G)p.r(U)p.r(G)p.r(U)p.r(C)p.r(C)p.r(C)p.r(G)p.r(G)p.r(U)p.r(G)p.r(G)p.r(U)p.r(G)p.r(A)p.r(G)p.r(G)p.r(C)p.r(G)p.d(T)p.d(T)}|RNA2{r(C)p.r(G)p.r(C)p.r(C)p.r(U)p.r(C)p.r(A)p.r(C)p.r(C)p.r(A)p.r(C)p.r(C)p.r(G)p.r(G)p.r(G)p.r(A)p.r(C)p.r(A)p.r(C)p.d(A)p.d(G)}$$$RNA1{StrandType:ss}|RNA2{StrandType:as}$”, the normalised inhibition (eCFP-eYFP dual reporter) stood at 62.9%.

“RNA1{r(G)p.r(C)p.r(G)p.r(U)p.r(U)p.r(C)p.r(A)p.r(A)p.r(G)p.r(A)p.r(A)p.r(U)p.r(G)p.r(A)p.r(U)p.r(G)p.r(C)p.r(C)p.r(A)p.d(T)p.d(T)}|RNA2{r(U)p.r(G)p.r(G)p.r(C)p.r(A)p.r(U)p.r(C)p.r(A)p.r(U)p.r(U)p.r(C)p.r(U)p.r(U)p.r(G)p.r(A)p.r(A)p.r(C)p.r(G)p.r(C)p.d(C)p.d(T)}$$$RNA1{StrandType:ss}|RNA2{StrandType:as}$” yielded a normalised inhibition (eCFP-eYFP dual reporter) of 93.4%.

On to “RNA1{r(G)p.r(G)p.r(U)p.r(G)p.r(A)p.r(G)p.r(G)p.r(C)p.r(G)p.r(C)p.r(C)p.r(G)p.r(C)p.r(G)p.r(C)p.r(G)p.r(C)p.r(G)p.r(C)p.d(T)p.d(T)}|RNA2{r(G)p.r(C)p.r(G)p.r(C)p.r(G)p.r(C)p.r(G)p.r(C)p.r(G)p.r(G)p.r(C)p.r(G)p.r(C)p.r(C)p.r(U)p.r(C)p.r(A)p.r(C)p.r(C)p.d(A)p.d(C)}$$$RNA1{StrandType:ss}|RNA2{StrandType:as}$”, for which the normalised inhibition (eCFP-eYFP dual reporter) amounted to 26%.

“RNA1{r(A)p.r(G)p.r(A)p.r(C)p.r(C)p.r(A)p.r(U)p.r(G)p.r(A)p.r(A)p.r(C)p.r(C)p.r(G)p.r(G)p.r(G)p.r(C)p.r(G)p.r(G)p.r(A)p.d(T)p.d(T)}|RNA2{r(U)p.r(C)p.r(C)p.r(G)p.r(C)p.r(C)p.r(C)p.r(G)p.r(G)p.r(U)p.r(U)p.r(C)p.r(A)p.r(U)p.r(G)p.r(G)p.r(U)p.r(C)p.r(U)p.d(T)p.d(G)}$$$RNA1{StrandType:ss}|RNA2{StrandType:as}$”: the normalised inhibition (eCFP-eYFP dual reporter) worked out at 78.8%.

Take “RNA1{r(G)p.r(U)p.r(G)p.r(G)p.r(A)p.r(G)p.r(G)p.r(G)p.r(C)p.r(C)p.r(A)p.r(G)p.r(G)p.r(G)p.r(G)p.r(U)p.r(G)p.r(G)p.r(C)p.d(T)p.d(T)}|RNA2{r(G)p.r(C)p.r(C)p.r(A)p.r(C)p.r(C)p.r(C)p.r(C)p.r(U)p.r(G)p.r(G)p.r(C)p.r(C)p.r(C)p.r(U)p.r(C)p.r(C)p.r(A)p.r(C)p.d(T)p.d(A)}$$$RNA1{StrandType:ss}|RNA2{StrandType:as}$”: the normalised inhibition (eCFP-eYFP dual reporter) was 52.8%.

Regarding “RNA1{r(A)p.r(C)p.r(G)p.r(U)p.r(G)p.r(U)p.r(C)p.r(C)p.r(G)p.r(A)p.r(G)p.r(U)p.r(A)p.r(C)p.r(A)p.r(G)p.r(C)p.r(U)p.r(G)p.d(T)p.d(T)}|RNA2{r(C)p.r(A)p.r(G)p.r(C)p.r(U)p.r(G)p.r(U)p.r(A)p.r(C)p.r(U)p.r(C)p.r(G)p.r(G)p.r(A)p.r(C)p.r(A)p.r(C)p.r(G)p.r(U)p.d(C)p.d(T)}$$$RNA1{StrandType:ss}|RNA2{StrandType:as}$”, the normalised inhibition (eCFP-eYFP dual reporter) came out at 74.9%.

These data come from the OligoGym collection.
